The METLIN SMRT retention time set (Domingo-Almenara et al. 2019)

Test: gradient 5% acetonitrile 3 min, to 50% in 2 min, to 85% in 15 min, held 3 min, 100 µL/min
Conditions: column: Zorbax Extend-C18 2.1 x 50 mm; eluents: water / acetonitrile, 0.1% formic acid
Summary of the method: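 Each retention time is based on an adduct peak selected computationally and verified by manual inspection. Measurements used HPLC–quadrupole time-of-flight mass spectrometry in positive and negative ionization mode on mixtures of ~100 pure standards. Chromatography ran on a Zorbax Extend-C18 column (2.1 × 50 mm, 1.8 μm) at 100 μL/min with water and acetonitrile, each containing 0.1% formic acid, and dead and dwell volumes of 40 μL and 900 μL.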

Row | Structure (SMILES) | RP-LC retention time [s]
1 | Cc1ccc2c(Nc3cc(F)cc(F)c3)c(C(=O)N3CCSCC3)cnc2n1 | 645
2 | CN(CC1CCOC1)C(=O)c1ccccc1Br (stereo unspecified) | 697
3 | COCCn1cc2c3c(cccc31)CN(C(=O)Nc1ccc(C)c(C)c1)CC2 | 1020
4 | C=CCNC(=O)N1CCCN(C2=NS(=O)(=O)C(c3ccc(C)c(C)c3)=C2C)CC1 | 770
5 | COc1cccc(-c2noc(Cn3ccnc3C)n2)c1 | 624
6 | CCCNC(=O)C1CCN(c2ccc(SCC(=O)Nc3cccc(CC)c3)nn2)CC1 | 674
7 | Cc1ccc(CNC(=O)c2c(OCC(C)C)cc(=O)n3c2CCCCC3)o1 | 786
8 | CCN1C(=O)c2c(C(=O)NCc3ccc(C)cc3)ncn2CC1(C)C(=O)NC1CCCC1 (stereo unspecified) | 783
9 | Cn1nccc1C(=O)N1CCN(c2cc(-c3ccccc3)[nH]n2)CC1 | 671
10 | O=C(NCCn1ncccc1=O)c1c(F)cccc1F | 584
11 | Cc1nc2cc3c(cc2n1CC(=O)Nc1ccc2c(c1)OCCCO2)OCCO3 | 618
12 | CCn1c(=O)c(N2CCN(C(=O)Nc3cc(F)ccc3F)CC2)nc2ccccc21 | 997
13 | CCN1C(=O)CCc2cc(NS(=O)(=O)c3ccc(F)c(C)c3)ccc21 | 834
14 | Cc1n[nH]c(C)c1S(=O)(=O)N1CCOCC1 | 582
15 | Cc1cc(C)cc(NC(=O)C2CCCN(S(=O)(=O)c3cn(C(C)C)cn3)C2)c1 (stereo unspecified) | 876
16 | Cn1ccc2cc(S(=O)(=O)N3CCCC(C(=O)NCCC4=CCCCC4)C3)ccc21 (stereo unspecified) | 1040
17 | Cc1ccc2nc(NC3=NCN(Cc4cccnc4)CN3)nc(C)c2c1 | 587
18 | COc1ccccc1C(=O)N1CCCC1c1cc(C)on1 (stereo unspecified) | 723
19 | O=C1NCC2(CCN(CCc3ccccc3)CC2)O1 | 579
20 | CCCNC(=O)C1CCCN(c2ccc(SCC(=O)Nc3ccc(C(=O)OCC)cc3)nn2)C1 (stereo unspecified) | 701
21 | CSc1ncn(-c2nc(N(C)C)nc(N3CCCCC3)n2)n1 | 1090
22 | CCOC(=O)c1c(C)n(Cc2ccco2)c2ccc(O)cc12 | 854
23 | COc1ccc(NC(=O)N2CCN(c3cnn4c(C)nnc4c3)CC2)cc1OC | 577
24 | COC(=O)c1cccc(C(=O)Nc2ccc(C)c(Cl)c2)n1 | 991
25 | CCOc1ccc2nc(C(=O)N3CCN(c4ccccn4)CC3)cn2n1 | 600
26 | COc1cccc(NC(=O)CN2CCc3c(c(=O)c4cc(C)ccc4n3C)C2)c1 | 609
27 | CC1CCN(S(=O)(=O)c2ccc3nn(CC(=O)OC(C)C)c(=O)n3c2)CC1 | 929

Row | Structure (SMILES) | RP-LC retention time [s]
28 | CSc1ccc(-c2noc(Cn3c(=O)n(-c4cccc(F)c4)c(=O)c4sccc43)n2)cc1 | 1040
29 | O=C(Cn1cnc2c(nc3n2CCCCC3)c1=O)N1CCC(Cc2ccccc2)CC1 | 764
30 | Cc1nn(CC(=O)NCCCN2CCCC2=O)c(=O)c2cc(-c3ccccc3)nn12 | 684
31 | COC1CCC12CCN(Cc1ccccn1)CC2 (stereo unspecified) | 571
32 | CCc1nc2ccccc2n1CC(O)COc1cc(C)c(Cl)c(C)c1 (stereo unspecified) | 770
33 | COc1ccc(OC)c(S(=O)(=O)N2CCC(c3cc(-c4cccc(C)c4)n[nH]3)CC2)c1 | 960
34 | CCOC(=O)Cc1ccc(NC(=O)N2CCc3nc[nH]c3C2)cc1 | 588
35 | Cc1nc(S(=O)(=O)N2CCC(C(=O)NCc3ccc(Cl)cc3)CC2)cn1C | 709
36 | O=C(Cc1c(Sc2cccc(F)c2)[nH]c2ccccc12)N1CCN(c2ccccn2)CC1 | 699
37 | Cc1cccc(Cn2c(=O)n(CCNC(=O)C3CCCO3)c3ncccc32)c1 (stereo unspecified) | 715
38 | O=C(CSc1ccc(N2CCCC(C(=O)NC3CC3)C2)nn1)Nc1cccc(F)c1 (stereo unspecified) | 611
39 | CC(C)NC(=O)N1CCOc2ccccc21 | 774
40 | COC(=O)c1c(-c2ccc(OC)cc2)csc1N | 822
41 | CCOC(=O)C1=C(CN2CCOCC2)NC(=O)NC1c1ccc(OC(C)C)cc1 (stereo unspecified) | 628
42 | COCCNC(=O)c1ncoc1-c1ccccc1C(=O)N1CCCC1 | 635
43 | O=C(NCc1ccccc1Cl)C1CCCN(S(=O)(=O)c2c[nH]c(C(=O)N3CCCC3)c2)C1 (stereo unspecified) | 790
44 | CC(=O)N1CCC(C2CCN(Cc3ccc(Br)s3)C2)CC1 (stereo unspecified) | 603
45 | Cc1nc(CC(=O)Nc2nc(-c3ccc(OC(C)C)cc3)cs2)cs1 | 1080
46 | O=C(c1cc(S(=O)(=O)N2CCCC(C(=O)N3CCc4ccccc43)C2)c[nH]1)N1CCCCCC1 (stereo unspecified) | 949
47 | O=S(=O)(Nc1ccc(F)c(F)c1)c1c[nH]c2ncccc12 | 739
48 | Cn1ccc2cc(S(=O)(=O)N3CCC(C(=O)NCC4CCCO4)CC3)ccc21 (stereo unspecified) | 739
49 | CC(C)(C)C(=O)Nc1ccc2nc(N3CCN(c4ccccc4)CC3)cc(C(=O)O)c2c1 | 683
50 | COc1ccc(C(C)NC(=O)C2CC(=O)N(c3ccc4c(c3)CCN4C(C)=O)C2)cc1 (stereo unspecified) | 688
51 | CC(=O)Cc1nsc(NC(=O)c2ccc(C(C)(C)C)cc2)n1 | 874
52 | Cc1c(C(=O)NCC(C)C)cnn1-c1cc(-c2nc(C(C)C)no2)ccn1 | 1010
53 | O=C1CC(CNS(=O)(=O)c2cccc(C(F)(F)F)c2)CN1c1ccc(Cl)cc1 (stereo unspecified) | 893
54 | CC(C)N1CCN(C(=O)c2csc(-c3ccc(N4CCCC4)nc3)n2)CC1 | 559

Further lines, results first:

Row | RP-LC retention time [s] | Structure (SMILES)
55 | 791 | CCOCCCNC(=O)C1(C)Cn2c(ccc2-c2ccco2)C(=O)N1c1ccc(OC)cc1 (stereo unspecified)
56 | 811 | CCC(C(=O)Nc1cnn(-c2ncc(N(C)C)cn2)c1)c1ccccc1 (stereo unspecified)
57 | 674 | CCOc1ccc(NC(=O)C2CCCN(c3nnc4ccccn34)C2)cc1 (stereo unspecified)
58 | 940 | CC(C)c1noc(-c2cc(=O)n(CC(=O)NCc3ccccc3)c3ccccc23)n1
59 | 997 | O=C(Nc1ccccc1)N1CCc2nc(-c3ccc(Cl)cc3)ncc2C1
60 | 1270 | Clc1ccc(CSc2nnc(-c3ccc(Br)cc3)o2)cc1
61 | 792 | COCCCNC(=O)Cn1cnc2onc(-c3ccc(Cl)cc3)c2c1=O
62 | 873 | COc1ccc(-c2nnc(-c3cccnc3NCc3ccc(N(C)C)cc3)o2)cc1
63 | 645 | CCn1cc(S(=O)(=O)NCCc2noc(-c3ccncc3)n2)cn1
64 | 1240 | COc1ccc(OC)c(NC(=O)c2cc3c(=O)n(CC(C)C)c4ccccc4n3n2)c1
65 | 998 | CCSc1nc2ccc(NS(=O)(=O)c3cccc(F)c3)cc2s1
66 | 1160 | CCOc1ccc(-c2noc(Cc3nnc(-c4cccc(Br)c4)o3)n2)cc1
67 | 1090 | CCN1C(=O)COc2ccc(-c3csc(NC(=O)c4ccc(Cl)cc4)n3)cc21
68 | 912 | COCCN(CC(=O)N1CCc2sccc2C1COc1ccccc1F)C(=O)C(C)C (stereo unspecified)
69 | 1110 | O=S(=O)(Cc1cccc(Cl)c1)N1CCc2nc(-c3ccc(F)cc3)ncc2C1
70 | 792 | CCc1noc(NC(C)=O)c1-c1ccc(OC)c(S(=O)(=O)Nc2ccc(F)c(F)c2)c1
71 | 638 | CCc1ccccc1NC(=O)Cn1c(N)nc(C(C)C)cc1=O
72 | 978 | COC(=O)c1sccc1NC(=O)NCC(c1ccc(OC)c(OC)c1)c1c[nH]c2ccccc12 (stereo unspecified)
73 | 746 | CCOc1ccc(Nc2c(-c3cccc(O)c3)nc3cnccn23)cc1

Row | RP-LC retention time [s] | Structure (SMILES)
74 | 605 | Cc1ccc(C(=O)N2CCCn3cc(-c4ccccc4)nc32)cn1
75 | 945 | CCOc1ccccc1CNC(=O)c1nnc(-c2ccc(S(=O)(=O)N(C)C)cc2)o1
76 | 758 | COC(=O)C(NC(=O)N1CCCn2nc(-c3ccc(OC)cc3)cc2C1)c1ccccc1 (stereo unspecified)
77 | 1250 | CCC1(C(=O)OC)CCc2c(cc(OC)c3ccccc23)C1=O (stereo unspecified)
78 | 1120 | Cc1ccccc1Oc1nccnc1N1CCCC(C(=O)NCc2cccc(C(F)(F)F)c2)C1 (stereo unspecified)
79 | 912 | CCCn1cc(S(=O)(=O)NCc2ccccc2Cl)c2cccnc21
80 | 580 | O=C(NC1CC1)c1ccccc1OCC1CCCN(Cc2ccc3c(c2)CCO3)C1 (stereo unspecified)
81 | 768 | CN(CC(=O)N1CCN(c2ccccc2F)CC1)S(=O)(=O)c1ccc2c(c1)CCCC(=O)N2
82 | 1040 | COc1ccccc1Cc1nc(-c2cn(-c3cccc(F)c3)nn2)no1
83 | 721 | COc1ccc(-c2nc3ccccn3c2Nc2ccccc2C)cc1
84 | 997 | COc1ccc(-c2noc(Cc3nnc(-c4ccc(C)c(C)c4)o3)n2)cc1OC
85 | 1030 | Cc1ccc(-c2nnc(-c3cccc(S(=O)(=O)NCc4cccs4)c3)o2)cc1
86 | 669 | CCC(C(=O)NCCCN1CCCC1)n1nc(C)c2sc3ccccc3c2c1=O (stereo unspecified)
87 | 996 | CCc1ccc(NS(=O)(=O)c2ccc(-c3c(C)noc3C)cc2)cc1
88 | 612 | COc1ccc(Cl)c2c(=O)c3c([nH]c12)CCN(CC(=O)NCc1ccc(F)cc1)C3
89 | 890 | CC(=O)NCc1ccc(-c2noc(Cc3ccc(Br)cc3)n2)s1
90 | 741 | CC(=O)c1ccc2c(c1)N(CCCN(C)C)c1ccccc1S2
91 | 810 | O=C(CSc1ccc(F)cc1)N1CCCC(c2nnc(-c3ccc4c(c3)OCO4)o2)C1 (stereo unspecified)
